Reference: patent US20260285873A1, “CYCLIC COMPOUNDS USED AS MULTI-TARGET KINASE INHIBITORS AND PREPARATION METHOD THEREFOR” (Shanghai Institute of Organic Chemistry, Chinese Academy of …, priority 2022, published 2026)
Where two headings read alike, the source gives them in different places. Blank lines part the entries; values can stand above or below the compound they belong to.

Columns and labels:
LRRK2 wt = LRRK2 wt (Homo sapiens, UniProt Q5S007); test: Kinase activity inhibition assay (ADP-Glo), LRRK2 wt; format: biochemical; details: read-out: LRRK2 wt inhibition rate at 100 nM; compound at 100 nM
Procedure: The kinase activity inhibition assay was performed by ICE Bioscience (Beijing) using ADP-Glo and HTRF methods.

[1] = Oral pharmacokinetic study in rats; format: in vivo; details: rat, brain, male SD rats, oral gavage, read-out: B/P (1 h)
Procedure: Drug preparation: 1% MC was added to the compound, ground, and shaken uniformly. Samples were collected at 5 min, 15 min, 30 min, 1 h, 2 h, 4 h, and 8 h post-dose, followed by analysis using liquid chromatography-tandem mass spectrometry (LC-MS/MS).

Chain of LRRK2 wt (Q5S007 whole entry): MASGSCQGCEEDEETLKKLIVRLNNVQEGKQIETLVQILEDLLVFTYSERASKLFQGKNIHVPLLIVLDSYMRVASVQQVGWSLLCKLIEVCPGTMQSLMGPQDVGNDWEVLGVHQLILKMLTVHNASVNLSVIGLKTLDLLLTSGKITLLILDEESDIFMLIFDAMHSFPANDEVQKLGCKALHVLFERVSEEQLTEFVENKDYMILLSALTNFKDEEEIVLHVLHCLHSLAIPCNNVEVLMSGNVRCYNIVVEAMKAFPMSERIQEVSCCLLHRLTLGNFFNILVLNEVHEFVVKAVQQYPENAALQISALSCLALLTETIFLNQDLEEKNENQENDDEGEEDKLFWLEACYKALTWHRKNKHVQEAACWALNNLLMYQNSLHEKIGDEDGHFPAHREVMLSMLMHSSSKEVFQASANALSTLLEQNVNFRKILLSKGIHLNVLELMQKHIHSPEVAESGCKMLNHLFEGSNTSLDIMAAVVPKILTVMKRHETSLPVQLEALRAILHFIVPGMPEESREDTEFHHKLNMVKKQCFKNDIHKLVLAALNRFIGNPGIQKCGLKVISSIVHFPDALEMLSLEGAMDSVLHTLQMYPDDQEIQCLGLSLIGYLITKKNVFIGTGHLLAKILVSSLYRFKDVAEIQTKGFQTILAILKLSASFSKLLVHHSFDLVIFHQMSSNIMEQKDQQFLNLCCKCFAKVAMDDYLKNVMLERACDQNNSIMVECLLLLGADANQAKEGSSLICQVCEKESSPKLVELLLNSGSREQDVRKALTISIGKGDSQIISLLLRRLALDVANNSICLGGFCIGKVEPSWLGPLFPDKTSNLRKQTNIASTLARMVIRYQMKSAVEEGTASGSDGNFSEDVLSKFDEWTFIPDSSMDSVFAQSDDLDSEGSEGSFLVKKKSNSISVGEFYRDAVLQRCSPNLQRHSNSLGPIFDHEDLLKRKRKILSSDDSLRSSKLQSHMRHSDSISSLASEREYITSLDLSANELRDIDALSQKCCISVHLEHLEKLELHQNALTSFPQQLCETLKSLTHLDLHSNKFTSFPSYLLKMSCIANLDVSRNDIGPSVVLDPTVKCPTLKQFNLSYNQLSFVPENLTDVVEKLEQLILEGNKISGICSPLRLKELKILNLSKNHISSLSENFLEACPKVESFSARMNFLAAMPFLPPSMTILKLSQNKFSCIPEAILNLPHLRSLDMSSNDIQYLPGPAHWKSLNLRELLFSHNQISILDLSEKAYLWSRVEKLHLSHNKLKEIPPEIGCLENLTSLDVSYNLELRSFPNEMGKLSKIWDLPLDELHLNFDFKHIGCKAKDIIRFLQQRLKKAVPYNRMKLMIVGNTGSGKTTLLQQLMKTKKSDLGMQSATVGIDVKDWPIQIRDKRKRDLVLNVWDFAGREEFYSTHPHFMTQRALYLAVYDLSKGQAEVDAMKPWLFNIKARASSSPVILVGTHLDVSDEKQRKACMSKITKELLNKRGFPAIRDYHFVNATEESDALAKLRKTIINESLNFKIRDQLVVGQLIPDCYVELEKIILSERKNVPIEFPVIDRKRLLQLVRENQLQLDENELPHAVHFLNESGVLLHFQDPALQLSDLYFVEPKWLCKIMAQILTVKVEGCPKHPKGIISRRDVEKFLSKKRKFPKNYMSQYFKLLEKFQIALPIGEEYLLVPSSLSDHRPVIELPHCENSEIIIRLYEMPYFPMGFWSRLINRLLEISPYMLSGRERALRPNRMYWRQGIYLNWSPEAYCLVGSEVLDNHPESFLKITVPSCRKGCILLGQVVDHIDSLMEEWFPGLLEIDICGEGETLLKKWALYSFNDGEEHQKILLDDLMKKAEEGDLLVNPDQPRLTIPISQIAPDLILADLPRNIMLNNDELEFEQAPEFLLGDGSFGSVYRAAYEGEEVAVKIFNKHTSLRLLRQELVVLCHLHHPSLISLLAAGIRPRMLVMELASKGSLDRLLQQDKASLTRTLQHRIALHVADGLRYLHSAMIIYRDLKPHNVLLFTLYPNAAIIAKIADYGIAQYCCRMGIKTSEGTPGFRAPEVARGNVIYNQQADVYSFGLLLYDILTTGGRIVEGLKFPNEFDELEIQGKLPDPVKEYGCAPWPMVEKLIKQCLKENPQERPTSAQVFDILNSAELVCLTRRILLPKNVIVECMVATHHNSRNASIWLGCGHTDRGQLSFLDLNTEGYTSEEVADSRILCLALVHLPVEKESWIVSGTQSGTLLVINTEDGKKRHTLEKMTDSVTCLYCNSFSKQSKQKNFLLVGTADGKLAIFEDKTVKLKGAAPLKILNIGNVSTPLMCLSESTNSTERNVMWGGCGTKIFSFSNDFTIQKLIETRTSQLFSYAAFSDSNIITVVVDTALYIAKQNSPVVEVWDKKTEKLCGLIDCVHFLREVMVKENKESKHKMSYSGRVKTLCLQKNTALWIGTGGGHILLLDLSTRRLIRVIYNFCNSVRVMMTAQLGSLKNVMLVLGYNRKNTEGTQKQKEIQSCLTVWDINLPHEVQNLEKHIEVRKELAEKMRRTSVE

inhibition at 0.1 µM (LRRK2 wt): 42.1%
SMILES: Cc1nn2cc1Nc1ncc(C(F)(F)F)c(n1)NC1CCCC(C1)NC(=O)C2(C)C (stereo not drawn) [Example T-42, (5^3R,E)-1^3,8,8-Trimethyl-3^5-(trifluoromethyl)-1^1H-2,4,6-triaza-3(2,4)-pyrimidina-1(4,1)-pyrazola-5(1,3)-cyclohexacyclooctan-7-one]

Kp at 1 h ([1]; 3 mg/kg, 3 mpk): 0.13
SMILES: Cc1nn2cc1Nc1ncc(C(F)(F)F)c(n1)NCCCNC(=O)C2(C)C [Example T-1, (E)-3^3,4,4-Trimethyl-15-(trifluoromethyl)-3^1H-2,6,10-triaza-1(2,4)-pyrimidina-3(4,1)-pyrazolacyclodecan-5-one]

Kp at 1 h ([1]; 5 mg/kg, 5 mpk): 0.58
SMILES: Cc1nn2cc1Nc1ncc3c(Cl)cc(n3n1)CCCNC(=O)C2(C)C [Example T-25, (1^1Z,3^4E)-1^5-Chloro-3^3,4,4-trimethyl-3^1H-2,6-diaza-1(2,7)-pyrrolo[2,1-f][1,2,4]triazine-3(4,1)-pyrazolacyclononan-5-one]
